# From patent US5603755A, “Preventive agent for fouling organisms” (Ihara Chemical Industry Co., Ltd., priority 1994, dated 1997)
# Tested on: Balanus amphitrite
# Assay: whole plant or invertebrate
# Settings: 0.1 ppm; cypris larvae, 20° C., 24 hours (Table 1)
# Description: The nauplii of Balanus amphitrite, hatched in a natural sea water sterilized by filtration were tamed with a diatom feed to convert them into cypris larvae (settling stage larvae). Ten of these cypris larvae and 4 ml of a natural sea water sterilized by filtration were placed in a laboratory dish having a diameter of 3 cm. 10 mg of a present agent compound was made into 1 g of an emulsion with an emulsifier consisting of cyclohexanone and Tween 80 (a trade name of Kao Atlas Co., Ltd.), and the emulsion was diluted to a given concentration of present agent compound with an artificial sea water. 1 ml of the diluted solution was added into the above laboratory dish. The laboratory dish was allowed to stand in a thermostat of 20° C. for 24 hours, and the number of dead cypris larvae was examined. This test was repeated three times, and the mortality rate of Balanus amphitrite at a given concentration of present agent compound was determined.
# A test for mortality rate was conducted in the same manner as in Test 1 except that bis(tributyltin) oxide (hereinafter referred to simply as "TBTO" in some cases) was used as a test compound in place of the present agent compound.
# Tests for mortality rate were conducted in the same manner as in Tests 1-10 except that the present agent compounds were changed to those shown in Table 4.
# Tests for mortality rate were conducted in the same manner as in Tests 1-10 except that the present agent compounds were changed to those shown in Table 6.
row,Compound,Mortality rate [%]
1,"CCC[CH2][Sn]([CH2]CCC)([CH2]CCC)[O][Sn]([CH2]CCC)([CH2]CCC)[CH2]CCC [TBTO, bis(tributyltin) oxide, reference compound]",50

# Same assay, conditions: Amphibalanus amphitrite, 24 h, read-out: Mortality rate
row,Compound,mortality at 0.1 ppm [%]
1,Cc1ccccc1-c1csc(C(C#N)=C(O)c2ccccc2I)n1 [Test 4],100
2,Cc1ccccc1-c1csc(C(C#N)=C(O)c2ccccc2Br)n1 [Test 3],100
3,N#CC(=C(O)c1ccccc1Cl)c1nc(-c2ccccc2Cl)cs1 [Test 5],100
4,N#CC(=C(O)c1ccccc1Cl)c1nc(-c2ccccc2)cs1 [Test 1],100
5,N#CC(=C(O)c1c(F)cccc1Cl)c1nc(-c2ccccc2F)cs1 [Test 7],100
6,CC(C)(C)c1csc(C(C#N)=C(O)c2ccccc2Cl)n1 [Test 2],100
7,N#CC(=C(O)c1ccccc1Cl)c1nc(-c2ccccc2F)cs1 [Test 6],100

# Same assay, conditions: barnacle, in vivo, 24 h
row,Compound,Mortality rate [%]
1,CCCCS(=O)(=O)OC(=C(C#N)c1nc(-c2ccccc2)cs1)c1ccccc1Cl [Test 19],100
2,N#CC(=C(OC(=O)c1ccccc1)c1ccccc1Cl)c1nc(-c2ccccc2)cs1 [Test 16],100
3,CC(=O)OC(=C(C#N)c1nc(-c2ccccc2)cs1)c1ccccc1Cl [Test 13],100
4,CCCCC(=O)OC(=C(C#N)c1nc(-c2ccccc2)cs1)c1ccccc1Cl [Test 15],100
5,Cc1ccc(C(=O)OC(=C(C#N)c2nc(-c3ccccc3)cs2)c2ccccc2Cl)cc1 [Test 14],100
6,CS(=O)(=O)OC(=C(C#N)c1nc(-c2ccccc2)cs1)c1ccccc1Cl [Test 17],100
7,Cc1ccc(S(=O)(=O)OC(=C(C#N)c2nc(-c3ccccc3)cs2)c2ccccc2Cl)cc1 [Test 18],100
8,N#CC(=C(OS(=O)(=O)c1ccccc1)c1ccccc1Cl)c1nc(-c2ccccc2)cs1 [Test 20],100

# Tested on: not listed separately
# Assay: in vivo
# Settings: rat, po
row,Compound,LD50 [mg/kg]
1,"N#CC(C(=O)c1ccccc1Cl)=C1NC(c2ccccc2)=CS1 [3-(2-chlorophenyl)-2-(4-phenyl-2,3-dihydrothiazole-2-ylidene)-3-oxopropionitrile]",≥ 5000
